# Entries after “also recorded” stand apart in the source; their conditions may differ.
# How the values were obtained:
# [1] = test system: Blumeria graminis f. sp. hordei; conditions: cited from earlier work
# Excerpt: (§1) Insects are well protected against pathogens by an immunity-related arsenal of effector molecules including antimicrobial peptides (AMPs). Some AMPs are active against a broad spectrum of microbes, whereas the activity of others is restricted to certain types of bacteria or fungi. Insects produce a large number of antifungal peptides to protect them against fungal pathogens and parasites, and these peptides often interact with intracellular targets to inhibit key physiological processes such as DNA and protein synthesis, cell cycle progression and metabolic activity[1]–[3]. AMPs therefore offe ...
# Piriformospora indica = conditions: cited from earlier work
# Excerpt: as §1
# Fusarium graminearum [2] = conditions: in vivo; cited from earlier work
# yeast strain Y2HGold = assay: Bait toxicity test in yeast; type: cell-based, Saccharomyces cerevisiae; conditions: pGBKT7::Mtk vs pGBKT7 empty vector, growth on SDO/–Trp plates; data not shown
# [3] = test system: β(1,3)-glucanosyltransferase Gel1; conditions: cited from earlier work
# [4] = test system: SDH activity of P. indica mitochondrial SQR (complex II); type: biochemical, Piriformospora indica
# Fusarium graminearum [5] = conditions: read-out: IC50 against F. graminearum; cited from earlier work
# [6] = test system: SDH activity of F. graminearum mitochondrial SQR (complex II); type: biochemical, Fusarium graminearum; conditions: absorbance 600 nm, 25 °C
# SdhB = type: binding, Fusarium graminearum
substance,measurement,setting,value
"metchnikowin (HRHQGPIFDTRPSPFNPNQPRPGPIY; Metchnikowin synthetic; UniProt Q24395 27-52, looked up) [Mtk, 26-residue proline-rich linear antifungal peptide from Drosophila melanogaster; synthetic Mtk from Pepmic used in SDH assay]",antifungal activity when expressed in barley,[1],acts specifically against
same,antifungal activity when expressed in barley,Piriformospora indica,inactive
same,antifungal activity when expressed in barley,Fusarium graminearum [2],acts specifically against
same,toxicity towards yeast cells,yeast strain Y2HGold,not independently toxic
same,interference with F. graminearum cell wall biosynthesis by targeting Gel1,[3],interferes with F. graminearum cell wall biosynthesis
same,reduction in mitochondrial SDH activity,[4],unaffected; also recorded: no reduction was observed; also recorded: did not inhibit
same,IC50,Fusarium graminearum [5],1 µM
same,"reduction in mitochondrial SDH activity, significance by concentration","[6]; Mtk 2, 1, 0.5, 0.25, 0.12 and 0.06 µM, all concentrations except the lowest, 30 min, vs control without Mtk, means of three independent experiments",All concentrations except the lowest caused significant reductions
same,maximal inhibition of mitochondrial SDH activity,"[6]; synthetic Mtk, tested at 0.06, 0.12, 0.25, 0.5, 1 and 2 µM, isolated mitochondria, DCIP colorimetric, kinetic 30 min, relative to control (0 µM peptide = 100%), mean of three independent experiments, in triplicate",up to 52%
same,YFP fluorescence of Mtk constructs without a fusion partner (auto-activation),"SdhB; Mtk constructs with YFPCempty or YFPNempty, cytoplasm and nucleus",produced YFP fluorescence in both the cytoplasm and nucleus
same,YFP fluorescence on co-expression of Mtk and SdhB,"SdhB; Nicotiana benthamiana leaves, 3 days after injection, Mtk and SdhB YFP fusions",did not result in detectable YFP fluorescence

# Source: PMC5557811 (Scientific Reports, 2017)
